In US20220326255A1, “METHODS OF MONITORING MUCOSAL HEALING” (MediBeacon Inc., priority 2021, published 2022):

Experiments:
[1] = Cumulative urinary percent recovery of enterally administered tracer, crossover study in healthy adults and adults with Crohn's disease; type: in vivo, human; settings: for percent of administered dose recovered in urine: Crohn's disease patients
Method: (§1) A single center, randomized, open label, crossover study was performed to evaluate a solution containing 18.6 mg/mL of a pyrazine derived fluorophore (MB-102) at 1.5 or 3.0 mg/kg versus DSAT (L, 1000 mg and R, 200 mg) administered enterally.
(§2) To compare the dynamic ranges of the fluorophore and DSAT clearances, healthy adults and adults with evidence of small bowel Crohn's disease on magnetic resonance enterography were enrolled. Participants were randomized to receive either the fluorophore tracer or the sugars on treatment day 1, followed by the other tracer 3-7 days later. Urine was collected at baseline and 1, 2, 4, 6, 8, 10, and 12 hours after tracer ingestion. The cumulative urinary percent recovery of the fluorophore tracer was calculated using an Ultra-Performance Liquid Chromatography system with fluorescence detection and cumulative L, R, and L:R ratios using a normal phase, isocratic HPLC-tandem ESI mass spectrometry.

[2] = Safety and tolerability of orally administered MB-102 in the human study; type: in vivo
Method: as §1, §2
5 healthy adults and 4 adults with Crohn's disease completed the study without serious adverse events. […] At 12 hours post-dose in the healthy participants, approximately 0.5% to 1.0% of the administered dose was recovered, reflecting the inability of MB-102 to transverse the intestinal barrier when gut permeability is normal. […]

[3] = MB-102 plasma concentration (HPLC) after oral dose in healthy and Crohn's disease participants; type: in vivo, human; settings: for concentration at 360 min / concentration at 720 min: human, plasma, po
Method: In addition, two healthy participants and one participant with Crohn's disease were administered an oral dose of MB-102, and blood samples were collected at 6 and 12 hours post-administration. MB-102 plasma concentration levels were determined by HPLC.

[4] = system: rat model of small bowel injury; assay: Percent of administered dose of MB-102 recovered in urine, rat model of small bowel injury; type: in vivo; settings: rats with bowel injury compared to controls; oral gavage
Method: (§3) To this end, MB-102 was tested in the rat model of small bowel injury (FIGS. 4A and 4B). Transdermal measurements were initiated prior to oral gavage of MB-102 and transdermal measurements, alongside urine, were collected over time. Based on urine samples the Percent of Administered Dose Recovered was higher in rats with bowel injury than controls (FIG. 4A).

[5] = system: rat model of bowel injury; assay: Transdermal fluorescence detection of fluorophore after oral gavage, rat model of bowel injury; type: in vivo; settings: monitored continuously
Source text: To probe the ability to assess gut function in a specimen-free and real-time manner, a dual-wavelength transdermal fluorescence detection system was utilized to monitor MB-301 and MB-404 in the rat model of bowel injury. […] Following anaesthetization, the fluorescence detection system was affixed with medical adhesive to a depilated area on the back of each rat. Transdermal fluorescence monitoring was then initiated to detect baseline fluorescence prior to delivery of MB-301 and MB-404 by oral gavage, and was monitored continuously. The concentration of MB-301 as determined by transdermal fluorescence measurements remained low in both injured and control animals (FIG. 2, dashed lines) as this fluorophore is comparatively rapidly absorbed by the small intestine and subsequently cleared. […] Therefore, transdermal detection of MB-301 and MB-404 fluorescence can be used to provide a non-invasive, real-time indication of gut health.
as §3

[6] = system: rat model of small bowel injury; assay: Ratio of MB-404 to MB-301 in urine (HPLC) after oral gavage, rat model of small bowel injury; type: in vivo; settings: injured rats (indomethacin-induced bowel injury) compared to control rats
Source text: DSAT was mimicked using two fluorophores with similar molecular weights to mannitol and lactulose, MB-301 and MB-404 (see Table 2).
Furthermore, like both sugars used in the DSAT, MB-301 and MB-404 are not metabolized and are excreted by glomerular filtration, with neither (or negligible) tubular secretion nor reabsorption. To test the ability to distinguish between healthy and diseased gut, a rat model of small bowel injury was used with two injured and two control rats. The day after indomethacin-induced bowel injury, the rats were anaesthetized, a catheter was inserted for urine collection, and both fluorophores were delivered by oral gavage. Urine was collected prior to oral gavage and at a series of time points post-gavage. Concentrations of MB-301 and MB-404 in urine were determined using HPLC, and the ratio of their concentrations was plotted over time in FIG. 1.

[7] = Control Participants, 360 min post-administration
[8] = Control Participants, 720 min post-administration

OC[C@H]1O[C@@H](O[C@@H]2[C@@H](CO)OC(O)(CO)[C@H]2O)[C@H](O)[C@@H](O)[C@H]1O (mixture of isomers) [lactulose, reference compound]
percent of administered dose recovered in urine [1]: wide range

Nc1nc(C(=O)N[C@H](CO)C(=O)O)c(N)nc1C(=O)N[C@H](CO)C(=O)O [MB-102, 3,6-diamino-2,5-bis{N-[(1R)-1-carboxy-2-hydroxyethyl]carbamoyl}pyrazine]
serious adverse events ([2]; 5 healthy adults and 4 adults with Crohn's disease): no serious adverse events
tolerability ([2]; healthy adults and adults with Crohn's disease): well tolerated
Plasma Concentration [3, 7]: 21.3 ng/mL
Plasma Concentration [3, 8]: 16.7 ng/mL
concentration at 360 min [3, 7]: 21.2 ng/mL
concentration at 720 min [3, 8]: 16.8 ng/mL
concentration at 360 min ([3]; Crohn's Disease Participant, 360 min post-administration): 63.1 ng/mL
concentration at 720 min ([3]; Crohn's Disease Participant, 720 min post-administration): 26.5 ng/mL
Percent of Administered Dose Recovered (urine) [4]: higher
percent of administered dose recovered in urine [1]: wide range
urine excretion ([1]; diseased participants with respect to controls, oral administration): increased
MB-102 urine recovery ([1]; patients in remission when the study was performed): near normal values

Nc1nc(C(=O)O)c(N)nc1C(=O)O [MB-301, 3,6-diamino-2,5-pyrazine-dicarboxylic acid]
concentration as determined by transdermal fluorescence measurements ([5]; control animals): remained low
concentration as determined by transdermal fluorescence measurements ([5]; injured animals): remained low

O=C(NCC(O)CO)c1nc(NC[C@H](O)CO)c(C(=O)NCC(O)CO)nc1NC[C@H](O)CO (stereo partly drawn) [MB-404, N^2,N^5-bis(2,3-dihydroxypropyl)-3,6-bis[(S)-2,3-dihydroxypropylamino]pyrazine-2,5-dicarboxamide]
concentration as determined by transdermal fluorescence measurements ([5]; control animals): remained low
concentration as determined by transdermal fluorescence measurements ([5]; injured animals): increased over time
ratio of MB-404 to MB-301 in urine [6]: higher
